Literature values as cited in publication PMC5144109 (Analytical Chemistry, 2016).
Entries after “also recorded” stand apart in the source; their conditions may differ. Square brackets hold non-standard residues; d marks the D form. Ends that are not written are not given here.

Tests used:
aminopeptidase M (APM) = target: T1, aminopeptidase M (APM) (Sus scrofa, UniProt P15145); conditions: positive and negative control of the digestion experiments
T1 sequence (P15145 1-963): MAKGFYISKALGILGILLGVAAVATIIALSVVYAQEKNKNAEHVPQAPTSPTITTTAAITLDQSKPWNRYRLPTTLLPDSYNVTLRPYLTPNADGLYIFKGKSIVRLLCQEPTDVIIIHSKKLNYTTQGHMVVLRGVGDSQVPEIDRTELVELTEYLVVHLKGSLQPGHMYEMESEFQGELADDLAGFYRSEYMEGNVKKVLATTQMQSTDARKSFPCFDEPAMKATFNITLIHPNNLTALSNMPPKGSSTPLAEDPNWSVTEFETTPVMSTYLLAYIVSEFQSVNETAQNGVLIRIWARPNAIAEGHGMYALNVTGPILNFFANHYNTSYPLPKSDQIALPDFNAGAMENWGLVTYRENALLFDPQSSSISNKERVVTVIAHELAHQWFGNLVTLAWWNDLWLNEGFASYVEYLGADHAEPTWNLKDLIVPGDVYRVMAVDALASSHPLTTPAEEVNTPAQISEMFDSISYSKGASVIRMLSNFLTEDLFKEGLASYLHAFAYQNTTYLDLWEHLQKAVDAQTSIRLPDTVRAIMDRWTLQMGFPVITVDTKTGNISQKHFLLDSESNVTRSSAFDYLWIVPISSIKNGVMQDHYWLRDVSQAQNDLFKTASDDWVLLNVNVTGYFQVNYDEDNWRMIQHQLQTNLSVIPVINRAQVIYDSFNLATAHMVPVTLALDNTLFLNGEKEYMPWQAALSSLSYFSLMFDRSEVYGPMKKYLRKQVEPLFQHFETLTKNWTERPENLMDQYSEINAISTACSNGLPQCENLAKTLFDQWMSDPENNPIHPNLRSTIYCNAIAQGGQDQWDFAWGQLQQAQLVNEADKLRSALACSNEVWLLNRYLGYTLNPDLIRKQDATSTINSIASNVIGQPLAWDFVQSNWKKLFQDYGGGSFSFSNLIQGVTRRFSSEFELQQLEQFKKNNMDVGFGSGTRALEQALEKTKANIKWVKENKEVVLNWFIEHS

opioid receptors = conditions: in mammals

Row | Substance | digestion by APM (control peptides) (aminopeptidase M (APM)) | potency compared with morphine (opioid receptors)
1 | Asn-[dW]-Phe-NH2 [NdWFamide] | is not digested by APM; also recorded: known to resist degradation by APM | 
2 | dermorphin |  | higher potency than morphine
3 | Human angiotensin I acetate salt hydrate | is digested by APM | 
